A value given as a limit tells only on which side of the number the result lay.

The melting point is the temperature of the solid-liquid transition. Compound `CC(C)n1nc(-c2c(OCC(=O)O)nc(N)nc2-c2ccccc2)ccc1=O` came in with a melting point of 215 to 217 °C.
In turn, `O=C1CC(c2ccccc2)c2ccccc2CN1` (centres undefined) registered a melting point of 180 to 181 °C.
As to `O=C(Cc1csc(-c2c(O)cccc2O)n1)NC1C(=O)N2C(C(=O)OC(c3ccccc3)c3ccccc3)=CCSC12` (centres undefined), the melting point lay in the range of 164 to 166 °C.
For `CN1C(=O)c2c(c3c4ccccc4[nH]c3c3[nH]c4ccccc4c23)C1=O`, the melting point is more than 350 °C.
Take `CCn1cc(C(=O)O)c(=O)c2ccc(-n3cccc3)cc21`: the melting point lay in the range of 235 to 238 °C.
Compound `Cc1cccc(CO)c1Cl` returned a melting point of 63 to 64 °C.
With `Cc1c(NC(=O)CC(C)(C)C)cc2c(c1C)OC(C)(C)C2c1ccccc1C(C)C` (centres undefined), the melting point is 188 to 189 °C.
For `C=CCSC1(C(F)(F)F)CN(CC)C(=O)Nc2ccc(Cl)cc21` (centres undefined) the value was 138 to 142 °C; for `O=C(CO)N1CCN(C(=O)CO)CC1`, 169 to 173 °C.
For `COc1ccc(C2c3c(C)c(NC(=O)CC(C)(C)C)c(C)c(C)c3OC2(C)C)cc1` (centres undefined) the value was 175 to 176 °C; for `CC(=O)c1ccc(S(=O)(=O)Nc2ccon2)cc1`, 165 to 166 °C; for `CC(=O)Nc1ccc(N2CC(CNC(C)=S)OC2=O)cc1F` (centres undefined), 200 to 201 °C.
In turn, `Cc1nc2c(S(=O)(=O)Cl)cccc2s1` had a melting point of 100 to 102 °C.
In the case of `COCCSCC(=O)[C@H](Cc1ccccc1)NC(=O)[C@H](CC(C)C)NC(=O)OCc1ccccc1`, the melting point lay within 68 to 69 °C.
`O=[N+]([O-])c1cc(F)cc2c1OCCC2` returned a melting point of 48 to 50 °C.
The value for `CC(C)(C)c1cc(C(C)(C)C)[nH]n1` was 191 to 193 °C.
With `COc1cc(C(=O)CCC(=O)c2cc(OCc3ccccc3)c(O)c(S(=O)(=O)CCO)c2)cc(OC)c1OC`, the melting point lay within 129 to 130 °C.
The value for `CCOC(=O)c1cc(C)n(-c2cccc(C(C)=O)c2)c1-c1ccccc1` was 100 to 102 °C; that for `CCCCOc1cc(/C=C/C(=O)O)n(Cc2ccc(C(F)(F)F)cc2)n1` was 153 to 155 °C; that for `COc1ccc(C(CCCCC(=O)NO)C2=C(C)C(=O)c3ccccc3C2=O)cc1` (centres undefined) was 129 to 130 °C.
In turn, `Cc1ccc(S(=O)(=O)N(C)c2cccc(-c3ccnc4c(C(=O)c5ccccc5)cnn34)c2)cc1` registered a melting point of 170 to 171 °C.
`N#CCCNC(=S)C1CC(CF)(CF)Oc2ccc([N+](=O)[O-])cc21` (centres undefined): the melting point was in the range of 183 to 184 °C.
`Fc1cc(F)c2c(c1)CC(n1cc[nH]c1=S)CC2` (centres undefined) displayed a melting point of 250 to 251 °C.
Consider `CCOC(=O)C(C)=NNc1ccc(Cl)c(F)c1`, for which the melting point fell in the range of 161 to 163 °C.
For `COc1cccc([C@H]2O[C@H](CC(=O)Nc3ccc(CC(=O)O)cc3)C(=O)N(CC(C)(C)CO)c3ccc(Cl)cc32)c1OC` the value was 142 to 144 °C; for `CCCc1cc(-c2noc3cc(OC)ccc23)ccc1OC`, 70 to 72 °C; for `C#CCOCCn1cnc2c(N)nc3ccccc3c21`, 225 to 227 °C.
As for `Cn1cc(-c2cccc(C(F)(F)F)c2)c(=O)c(-c2cccc(S(C)(=O)=O)c2)c1`, the melting point was in the range of 180 to 183 °C.
Consider `CCOC(=O)c1cnn2c1c(N)nc1ccccc12`, for which the melting point lay in the range of 235 to 237 °C.
For `CCOC(=O)c1nc(-c2ccc(OC)cc2)oc1C` the value was 74 to 76 °C; for `CC1CCN(c2ccc(N)cc2C(=O)c2ccc(Cl)cc2)CC1`, 89 °C.
As to `COc1ccc(C(=O)CCC(=O)N[C@@H](C)C(=O)O)cc1`, the melting point fell in the range of 100 to 102 °C.
Compound `COc1ccc(C(=O)N[C@H]2C[C@@H](c3cc(NC(=O)Cc4cccc5ccccc45)n[nH]3)C2)cc1` gave a melting point of 176 °C.
In turn, `CC[C@H]1[C@H](O)CC(=O)N1c1ccc(C#N)c(Cl)c1C` yielded a melting point of 142 to 146 °C.
Consider `O=Cc1c[nH]c2ncc(-c3cccc(N4CCN(C(=O)C5CCNCC5)CC4)c3)nc12`, for which the melting point is more than 300 °C.
In the case of `CCCCNS(=O)(=O)c1cc(C(=O)O)cc([N+](=O)[O-])c1Cl`, the melting point was 199 to 201 °C.
For `O=c1[nH]c2nc(C(F)(F)F)cc(C(F)(F)F)c2cc1-c1ccncc1` the value was 250 to 270 °C.
The compound `C=CCOc1cc(C(=O)O)cc(S(C)(=O)=O)c1OCC=C` yielded a melting point of 163 °C.
For `CC(C)[C@H](N)C(=O)N[C@@H](Cc1ccccc1)C(O)[C@H](Cc1ccccc1)NC(=O)[C@@H](N)C(C)C` the value was 131 to 132 °C; for `Cc1cccc(C)c1NC(=S)C1(C)CCc2c(C)c(O)c(C)c(C)c2O1` (centres undefined), 122 to 123 °C.
Consider `N#Cc1ccc(Oc2cccc(F)c2)cc1`, for which the melting point was in the range of 67 to 69 °C.
In turn, `C#Cc1ccc2c(c1)C1(c3ccccc3-c3ccccc31)c1ccccc1-2` registered a melting point of 169 to 170 °C.
In turn, `Cc1cccc(Nc2ncnc3cc(NCCCN(C)C)c(N)cc23)c1` yielded a melting point of 60 to 66 °C.
Turning to `O=C(Nc1ccc(-c2ccc3c(NC(=O)c4ccccc4)n[nH]c3c2F)cc1)Nc1cc(C(F)(F)F)ccc1F`, the melting point fell in the range of 206 to 207 °C.
In the case of `CCCC(=O)Cc1ccc(C(=O)Nc2ccc3cc(CN4CCN(C)CC4)cnc3c2C)cc1`, the melting point is 177 °C.
`CCOC(=O)c1cn(-c2ccccc2)c2c(F)c(F)c(F)cc2c1=O` showed a melting point of 190 to 192 °C.
Compound `O=C(c1ccc(C(F)(F)F)cc1)c1cc(O)c(O)c([N+](=O)[O-])c1` returned a melting point of 116 to 118 °C.
As for `O=C(O)Cc1nn(Cc2nc3cccc(Cl)c3s2)c(=O)c2ccccc12`, the melting point was found to be 168 °C.
Turning to `COC(=O)CCCCc1csc(N)n1`, the melting point was 131 °C.
Take `CC(C)N(C1CCCC1)S(=O)(=O)N[C@@H](Cc1ccc(NC(=O)c2c(Cl)cncc2Cl)cc1)C(=O)O`: the melting point was found to be 157 °C.
`O=C1c2ccccc2C(=O)N1C[C@H]1COc2cc(Cl)ccc2O1` registered a melting point of 126 to 127 °C.
The compound `CCOc1cc(C(F)(F)F)sc1C(=O)O` displayed a melting point of 144 °C.
Compound `Cc1c(Cl)cc(Cl)cc1Br` registered a melting point of 84 to 85 °C.
In turn, `CCN(CC)C(=O)n1nc(NC)n(C)c1=O` yielded a melting point of 83 to 85 °C.
In turn, `CCOC(=O)Cn1c(=O)c2cc(F)c(-c3ncc[nH]3)cc2n(Cc2ccc(Cl)cc2Cl)c1=O` came in with a melting point of 192 to 193 °C.
For the compound `FCCOc1ccc(COCOc2ccc(Cl)cc2)cc1`, the melting point was 60.7 to 61.6 °C.
The value for `CCOC(=O)C1CCC(c2ccccc2)n2c(=O)n(CCl)c(=O)n21` (centres undefined) was 104 to 106 °C; that for `OC(CC1CCN(CC2CC2)CC1)(c1ccccc1)c1ccc(F)cc1` (centres undefined) was 115 to 116 °C; that for `O=C(O)Cc1csc(-c2ccccc2O)n1` was 173 to 174 °C.
`Oc1cccc([C@H]2CCCC[C@@H]2NCCc2ccccc2)c1` (racemic): the melting point was 164 to 165 °C.
Compound `CC(=O)N(C)c1c(N(C)C)cc(CC(C#N)=CNc2ccccc2)cc1N(C)C` showed a melting point of 190 to 200 °C.
As for `CNC(=O)CC(C)(C)c1ccc(C(=O)Nc2cn3cc(Cl)ccc3n2)cc1`, the melting point lay in the range of 228 to 230 °C.
For `Cc1ccc(Cc2cnc(NCCCCNc3ccccn3)[nH]c2=O)cn1` the value was 184 °C; for `C=C(C)c1ccccc1S(=O)(=O)NC(=O)Nc1nc(C)cc(C)n1`, 177 to 183 °C.
Turning to `CN1CCC(c2nn(CCCO)c3ccccc23)CC1`, the melting point lay within 96 to 98 °C.
`CSC1=C(c2ccccc2)C(=O)N(Nc2ccccc2)C1=O` registered a melting point of 86 to 88 °C.
For `CC(C)CCCC(C)C1CCC2C3CC=C4CC(I)CCC4(C)C3CCC12C` (centres undefined), the melting point was found to be 106 °C.
`Cc1nnc2n1-c1ccc(C#Cc3cccs3)cc1C(c1ccccc1Cl)=NC2` registered a melting point of 160 to 163 °C.
With `O=C1C2CN(Cc3ccccc3)CC2C(=O)N1Cc1ccccc1` (centres undefined), the melting point was 100 °C.
The value for `COC(=O)c1ccc(OCCNC(=O)C2Cc3ccccc3N2S(=O)(=O)c2ccc(-c3ccc(F)cc3Cl)cc2)cc1F` (centres undefined) was 71 to 76 °C; that for `CCCN(CCC)S(=O)(=O)c1cc(C2=CCC(=O)O2)ccc1Cl` was 118 to 121 °C; that for `CC(C)(C)c1ccc(OCC(O)CN2CCCC3(CSC4=C(O3)c3ccccc3C(=O)C4=O)C2)cc1` (centres undefined) was 90 to 92 °C.
Regarding `N=c1cc(NC(=S)Nc2ccccc2)nc2n1CCCS2`, the melting point is 157 to 158 °C.
For `Nc1c(F)c(N2CCC(C3(N)CCC3)C2)c(F)c2c1c(=O)c(C(=O)O)cn2[C@@H]1C[C@@H]1F` (some centres undefined), the melting point lay within 133 to 139 °C.
With `Oc1ccc(Nc2ccn(Cc3ccccc3)n2)cc1`, the melting point fell in the range of 114 to 116 °C.
In the case of `COc1ccc(C=CC(=O)OCCC(C)CCc2ccccc2)c(O)c1` (centres undefined), the melting point lay within 70 to 73 °C.
As to `Cn1nc(OCCCc2cc(-c3ccc(C(F)(F)F)cc3)no2)cc1C(=O)O`, the melting point was 162 to 163 °C.
In turn, `CC(C)C1=NC2=NC(SCc3ccccc3)(SCc3ccccc3)NN2C=C1` registered a melting point of 65 to 66 °C.
`COC(=O)C1(O)CC(O[Si](C)(C)C(C)(C)C)C(O)C(O[Si](C)(C)C(C)(C)C)C1` (centres undefined) returned a melting point of 82 to 82.5 °C.
`CC(=O)SCC(Cc1ccccc1)C(=O)Nc1cc(C(=O)O)ccc1N1CCCCC1` (centres undefined) gave a melting point of 170 to 174 °C.
`COc1ccc(C2CCN(c3c(C)c(C)c4c(c3C)C(O)(c3ccccc3)C(C)(C)O4)CC2)cc1OC` (centres undefined) showed a melting point of 143 to 145 °C.
The compound `COC(=O)c1ccc(Cl)c(N)c1Cl` displayed a melting point of 50 to 52 °C.
Compound `Cc1nccn1CC(C)C(=O)c1cn(C)c2ccccc12` (centres undefined) came in with a melting point of 205 to 207 °C.
Turning to `CC(CCN1C(=O)c2ccccc2C1=O)Cc1ccc(C(=O)CCC(=O)O)cc1` (centres undefined), the melting point fell in the range of 142 to 143 °C.
The compound `CCC(CC)N(O)C(=O)Nc1ccc(C)c(NC(=O)N(O)C(CC)CC)c1` registered a melting point of 175 to 177 °C.
Consider `O=C(O)c1cccc2cc(-c3ccc(Cl)cc3)oc12`, for which the melting point fell in the range of 228 to 230 °C.
`CCOC(=O)Cc1c(C)n(Cc2ccccc2)c2ccc(O)cc12` came in with a melting point of 122 to 125 °C.
For `Cc1cccc2c1CCN=C2c1ccc(Cl)cc1`, the melting point was 66 to 67 °C.
Compound `O=c1oc2c(c(O)c1Br)c(=O)n(Cc1ccccc1)c1ccccc21` came in with a melting point of 226 to 229 °C.

The values above are taken from a melting point compilation (Tetko et al.; mined from patent text by program, amines drawn as free bases though some values may be those of a salt).
